Results as given in US20260022098A1, “BULLEYACONITINE A DERIVATIVE WITH ANALGESIC ACTIVITY, AND PREPARATION METHOD AND APPLICATION THEREOF” (priority 2023, published 2026).
Like-named read-outs stand apart in the source and are kept apart here.

Tests used:
Kunming mice [1] = assay: Acute toxicity / median lethal dose (LD50) determination, subcutaneous injection; assay type: in vivo; design: key to Acute toxicity: if death occurred, (+) represented as positive; if no death occurred, (−) represented as negative; settings: mice administered 20 mg/kg subcutaneously, presence of death within 24 h
Protocol: (§1) The experimental animals were Kunming mice (male:female=1:1), weighed 22+2 g, which were provided by Chengdu dossy experimental animals Co., ltd., China. The mice were kept in the animal room of the School of Life Science and Engineering, Southwest Jiaotong University, where the animal room was set at a temperature of 23±2° C., a humidity of […] and a photoperiod of 16:8 h (L:D). Before the experiment, the mice were freely fed for 2-3 days with water and feed to adapt to the new environment. Then, the mice were treated by water and food fasting for 12 h. 10 animals were allocated to each group to ensure that there are at least 6 sets of valid data in each group. The animal experiments were carried out in strict accordance with the national regulations on the management of experimental animals.
(§2) The compounds prepared in the examples provided herein (test sample set) and bulleyaconitine A (positive control set) were all dissolved with 0.1 mol/L HCl according to a molar ratio of 1:1, and then diluted with physiological saline to a concentration to be determined. Blank control was physiological saline containing 0.1 mol/L HCl. The animals in the control groups were subjected to the same treatment as those in experimental groups except that samples to be test were replaced with physiological saline.
(2) Median Lethal Dose (LD50) Determination
The sample to be tested was dissolved with 0.1 mol/L HCl according to the amount of the substance ratio of 1:1, and diluted with physiological saline according to the required concentration. 10 mice in each group were randomly selected, half of which were male and half of which were female, and were placed in independent cages. Each mouse was injected subcutaneously with different sample solutions to be tested according to a dose of 0.1 mL/10 g body weight. In the preliminary toxicity experiment, the measured concentration was 20 mg/kg, and then based on the survival rate of the experimental animals in the preliminary experiment, the sample to be tested was set to at least 5 groups with different concentration dose according to the proportional series. The survival rate of mice within 24 h was recorded. The obtained dose-survival rate data was input into the SPSS software (version 17.2), and the LD50 of the sample was calculated according to the Probit regression method.

Kunming mice [2] = assay: Analgesic activity by acetic acid-induced writhing method (writhing inhibition rate, ED50); assay type: in vivo; settings: Mus musculus, sc, read-out: Analgesia rate (%) ± SEM
Protocol: as §1, §2
(1) Determination of Analgesic Activity Through an Acetic Acid-Induced Writhing Method
10 mice were randomly selected, male:female=1:1, were placed in independent cages. Each mouse was injected subcutaneously with the sample solution mentioned above at a dose of 0.1 mL/10 g body weight. After 15 min, a 0.7% acetic acid solution was intraperitoneally injected. A number of writhing reactions in each mouse within 15 minutes was recorded. The group that the mice were injected with physiological saline subcutaneously was the blank group; the group that the mice were injected with the sample to be tested was the experimental group; and the group that the mice were injected with bulleyaconitine A was the positive group. The analgesic activity was represented by a percentage of the reduced number of writhing compared to the blank group (writhing inhibition rate), which were specifically as follows: writhing inhibition rate (analgesic activity)=(average number of writhing times in the blank group-average number of writhing times in the experimental group)/average number of writhing times in the blank group×100%.
Median Effective Dose (ED50) Determination
The sample to be tested was dissolved with 0.1 mol/L HCl according to the amount of the substance ratio of 1:1, and diluted with physiological saline according to the proportional series to obtain at least 5 groups with different dose concentrations. The writhing inhibition rate of each dose group was tested according to the acetic acid-induced writhing method mentioned above. The obtained dose-writhing inhibition data was entered into the statistical product and service solutions (SPSS) software (version 17.2), and the ED50 of the sample to be tested was calculated through the Probit regression method.

SMILES | Acute toxicity (Kunming mice [1]) | inhibition in vivo at 0.05 mg/kg (Kunming mice [2]) [%] | inhibition in vivo at 0.05 mg/kg (Kunming mice [2]; dosing concentration 0.05 mg/kg, subcutaneous, acetic acid-induced writhing, mice) [%]
CCO[C@]12C[C@H](OC)[C@@]3(OC(=O)c4ccncc4)CC(C1[C@H]3OC(=O)c1ccncc1)[C@]13C4[C@@H](OC)C2[C@H]1N(CC)C[C@]4(COC)CC[C@@H]3OC (some centres unmarked) [Compound 49] | − | 13.7 ± 1 | 
CCN1C[C@]2(COC)CC[C@H](OC)[C@@]34C5C[C@]6(OC(C)=O)[C@@H](OC)C[C@@](OC)(C5[C@H]6OC(=O)c5ccc(OC)cc5)C([C@H](OC)C23)[C@@H]14 (some centres unmarked) [Compound 45] | − | 21.6 ± 1.3 | 
CCO[C@]12C[C@H](OC)[C@@]3(OC(=O)C4CC4)CC(C1[C@H]3OC(=O)c1ccc(OC)cc1)[C@]13C4[C@@H](OC)C2[C@H]1N(CC)C[C@]4(COC)CC[C@@H]3OC (some centres unmarked) [Compound 16] | − | 36.7 ± 1.2 | 
CCN1C[C@]2(COC)CC[C@H](OC)[C@@]34C5C[C@]6(OC(=O)c7ccc(Cl)cc7)[C@@H](OC)C[C@@](OC(C)=O)(C5[C@H]6OC(=O)c5ccc(OC)cc5)C([C@H](OC)C23)[C@@H]14 (some centres unmarked) [Compound 84] | − | 27 ± 1.4 | 
CCN1C[C@]2(COC)CC[C@H](OC)[C@@]34C5C[C@]6(OC(=O)c7ccc(OC)cc7)[C@@H](OC)C[C@@](OC)(C5[C@H]6OC(=O)c5ccc(OC)cc5)C([C@H](OC)C23)[C@@H]14 (some centres unmarked) [Compound 31] | − | 17 ± 2.2 | 
CCCC(=O)O[C@]12CC3C([C@H]1OC(=O)c1ccc(OC)cc1)[C@](OCC)(C[C@@H]2OC)C1[C@H](OC)C2[C@@]4(COC)CC[C@H](OC)[C@@]32[C@@H]1N(CC)C4 (some centres unmarked) [Compound 78] | − | 31.7 ± 1.4 | 
CCN1C[C@]2(COC)CC[C@H](OC)[C@@]34C5C[C@]6(OC(=O)C7CCOCC7)[C@@H](OC)C[C@@](OC)(C5[C@H]6OC(=O)C5CCOCC5)C([C@H](OC)C23)[C@@H]14 (some centres unmarked) [Compound 26] | − | 30.5 ± 1 | 
CCCC(=O)O[C@@H]1C2C3C[C@]1(OC(=O)CCC)[C@@H](OC)C[C@]2(OCC)C1[C@H](OC)C2[C@@]4(COC)CC[C@H](OC)[C@@]32[C@@H]1N(CC)C4 (some centres unmarked) [Compound 77] | − | 34.2 ± 1.8 | 
CCN1C[C@]2(COC)CC[C@H](OC)[C@@]34C5C[C@]6(OC(C)=O)[C@@H](OC)C[C@@](OC)(C5[C@H]6OC(C)=O)C([C@H](OC)C23)[C@@H]14 (some centres unmarked) [Compound 44] | − | 5.82 ± 3.4 | 
CCN1C[C@]2(COC)CC[C@H](OC)[C@@]34C5C[C@]6(OC(=O)c7cccnc7)[C@@H](OC)C[C@@](OC)(C5[C@H]6OC(=O)c5cccnc5)C([C@H](OC)C23)[C@@H]14 (some centres unmarked) [Compound 30] | − | 31.1 ± 2.4 | 
CCO[C@]12C[C@H](OC)[C@@]3(OC(C)=O)CC(C1[C@H]3OC(=O)c1ccc(OC)cc1)[C@]13C4[C@@H](OC)C2[C@H]1N(CC)C[C@]4(COC)CC[C@@H]3OC (some centres unmarked) [Compound 42] | − | 23 ± 1.7 | 
CCO[C@]12C[C@H](OC)[C@@]3(OC(=O)c4cccc(C#N)c4)CC(C1[C@H]3OC(=O)c1cccc(C#N)c1)[C@]13C4[C@@H](OC)C2[C@H]1N(CC)C[C@]4(COC)CC[C@@H]3OC (some centres unmarked) [Compound 95] | − | 23.8 ± 1.1 | 
CCN1C[C@]2(COC)CC[C@H](OC)[C@@]34C5C[C@]6(OC(=O)c7ccc([N+](=O)[O-])cc7)[C@@H](OC)C[C@@](OC(C)=O)(C5[C@H]6OC(=O)c5ccc(OC)cc5)C([C@H](OC)C23)[C@@H]14 (some centres unmarked) [Compound 40] | − | 31.9 ± 1.8 | 
CCO[C@]12C[C@H](OC)[C@@]3(OC(=O)c4cccc(OC)c4)CC(C1[C@H]3OC(=O)c1cccc(OC)c1)[C@]13C4[C@@H](OC)C2[C@H]1N(CC)C[C@]4(COC)CC[C@@H]3OC (some centres unmarked) [Compound 76] | − | 0 | 
CCO[C@]12C[C@H](OC)[C@@]3(OC(=O)C(C)C)CC(C1[C@H]3OC(=O)c1ccc(OC)cc1)[C@]13C4[C@@H](OC)C2[C@H]1N(CC)C[C@]4(COC)CC[C@@H]3OC (some centres unmarked) [Compound 81] | − | 28.8 ± 1.2 | 
CCO[C@]12C[C@H](OC)[C@@]3(OC(=O)c4cccc(F)c4)CC(C1[C@H]3OC(=O)c1cccc(F)c1)[C@]13C4[C@@H](OC)C2[C@H]1N(CC)C[C@]4(COC)CC[C@@H]3OC (some centres unmarked) [Compound 72] | − | 24.7 ± 2 | 
CCO[C@]12C[C@H](OC)[C@@]3(OC(=O)CC(C)(C)C)CC(C1[C@H]3OC(=O)c1ccc(OC)cc1)[C@@]13C4[C@@H]2[C@H](OC)C1[C@@](COC)(CC[C@@H]3OC)CN4CC (some centres unmarked) [Compound 89] | − |  | 33.7 ± 2.4
CCO[C@]12C[C@H](OC)[C@@]3(OC(=O)c4ccccc4Cl)CC(C1[C@H]3OC(=O)c1ccccc1Cl)[C@]13C4[C@@H](OC)C2[C@H]1N(CC)C[C@]4(COC)CC[C@@H]3OC (some centres unmarked) [Compound 68] | − | 24.6 ± 1.7 | 
CCO[C@]12C[C@H](OC)[C@@]3(OC(=O)c4ccc(C(F)(F)F)cc4)CC(C1[C@H]3OC(=O)c1ccc(C(F)(F)F)cc1)[C@]13C4[C@@H](OC)C2[C@H]1N(CC)C[C@]4(COC)CC[C@@H]3OC (some centres unmarked) [Compound 46] | − | 16.7 ± 2.6 | 
CCO[C@]12C[C@H](OC)[C@@]3(OC(=O)c4cccc(C)c4)CC(C1[C@H]3OC(=O)c1cccc(C)c1)[C@]13C4[C@@H](OC)C2[C@H]1N(CC)C[C@]4(COC)CC[C@@H]3OC (some centres unmarked) [Compound 62] | − | 15 ± 2.4 | 
CCO[C@]12C[C@H](OC)[C@@]3(OC(=O)c4ccncc4)CC(C1[C@H]3OC(=O)c1ccc(OC)cc1)[C@]13C4[C@@H](OC)C2[C@H]1N(CC)C[C@]4(COC)CC[C@@H]3OC (some centres unmarked) [Compound 50] | − | 33.2 ± 1.4 | 
CCO[C@]12C[C@H](OC)[C@@]3(OC(=O)c4ccccc4C)CC(C1[C@H]3OC(=O)c1ccccc1C)[C@]13C4[C@@H](OC)C2[C@H]1N(CC)C[C@]4(COC)CC[C@@H]3OC (some centres unmarked) [Compound 75] | − | 10.8 ± 2.2 | 
CCN1C[C@]2(COC)CC[C@H](OC)[C@@]34C5C[C@]6(OC(=O)c7ccc(C)cc7)[C@@H](OC)C[C@@](OC(C)=O)(C5[C@H]6OC(=O)c5ccc(OC)cc5)C([C@H](OC)C23)[C@@H]14 (some centres unmarked) [Compound 58] | − | 28.8 ± 1.8 | 
CCN1C[C@]2(COC)CC[C@H](OC)[C@@]34C5C[C@]6(OC(=O)c7ccco7)[C@@H](OC)C[C@@](OC)(C5[C@H]6OC(=O)c5ccco5)C([C@H](OC)C23)[C@@H]14 (some centres unmarked) [Compound 32] | − | 37.3 ± 1.4 | 
CCO[C@]12C[C@H](OC)[C@@]3(OC(=O)c4cccc(Cl)c4)CC(C1[C@H]3OC(=O)c1cccc(Cl)c1)[C@]13C4[C@@H](OC)C2[C@H]1N(CC)C[C@]4(COC)CC[C@@H]3OC (some centres unmarked) [Compound 71] | − | 4.11 ± 2 | 
CCN1C[C@]2(COC)CC[C@H](OC)[C@@]34C5C[C@]6(OC(=O)c7ccncc7)[C@@H](OC)C[C@@](OC(C)=O)(C5[C@H]6OC(=O)c5ccc(OC)cc5)C([C@H](OC)C23)[C@@H]14 (some centres unmarked) [Compound 51] | − | 32.6 ± 1.7 | 
CCN1C[C@]2(COC)CC[C@H](OC)[C@@]34C5C[C@]6(OC(=O)C7CC7)[C@@H](OC)C[C@@](OC(C)=O)(C5[C@H]6OC(=O)c5ccc(OC)cc5)C([C@H](OC)C23)[C@@H]14 (some centres unmarked) [Compound 10] | − | 15.2 ± 1.9 | 
CCO[C@]12C[C@H](OC)[C@@]3(O)CC(C1[C@H]3O)[C@]13C4[C@@H](OC)C2[C@H]1N(CC)C[C@]4(COC)CC[C@@H]3OC (some centres unmarked) [Compound 4] | − | 5.63 ± 1.1 | 
